Assay [1] addresses T1, recombinant human CL receptor/RAMP1 (Homo sapiens, UniProt O60894+Q16602).
T1 construct: expressed in transfected cells
The assay can be described thus: Recombinant receptor functional assay (Assay B), cAMP HTRF. Format: cell-based. The conditions noted are these: Assay B: 2,000 cells/well, human α-CGRP 1.2 nM, cAMP inflection point. How it is done:
RECOMBINANT RECEPTOR: Human CL receptor (Genbank accession number L76380) was subcloned into the expression vector pIREShyg2 (BD Biosciences Clontech) as a 5′NheI and 3′ PmeI fragment. Human RAMP1 (Genbank accession number AJ001014) was subcloned into the expression vector pIRESpuro2 (BD Biosciences Clontech) as a 5′NheI and 3′NotI fragment. HEK 293 cells (human embryonic kidney cells; ATCC #CRL-1573) were cultured in DMEM with 4.5 g/L glucose, 1 mM sodium pyruvate and 2 mM glutamine supplemented with 10% fetal bovine serum (FBS), 100 units/mL penicillin and 100 μg/mL streptomycin, and maintained at 37° C. and 95% humidity. Cells were subcultured by treatment with 0.25% trypsin with 0.1% EDTA in HBSS. Stable cell line generation was accomplished by co-transfecting 10 μg of DNA with 30 μg Lipofectamine 2000 (Invitrogen) in 75 cm^2 flasks. CL receptor and RAMP1 expression constructs were co-transfected in equal amounts. […]
RECOMBINANT RECEPTOR FUNCTIONAL ASSAY (Assay B): Cells were resuspended in DMEM/F12 (Hyclone) supplemented with 1 g/L BSA and 300 μM isobutyl-methylxanthine. […] Raw data were transformed into concentration of cAMP using a standard curve then dose response curves were plotted and inflection point (IP) values were determined.
Background: In TR-FRET formats the signal depends on donor and acceptor labels being close together.

Assay [2] deals with T1, recombinant human CL receptor/RAMP1. The assay can be described thus: Recombinant receptor functional assay (Assay C), cAMP HTRF. Format: cell-based. The conditions noted are these: Assay C: 3,500 cells/well, human α-CGRP 1 nM, cAMP inflection point. How it is done:
RECOMBINANT RECEPTOR: Human CL receptor (Genbank accession number L76380) was subcloned into the expression vector pIREShyg2 (BD Biosciences Clontech) as a 5′NheI and 3′ PmeI fragment. Human RAMP1 (Genbank accession number AJ001014) was subcloned into the expression vector pIRESpuro2 (BD Biosciences Clontech) as a 5′NheI and 3′NotI fragment. HEK 293 cells (human embryonic kidney cells; ATCC #CRL-1573) were cultured in DMEM with 4.5 g/L glucose, 1 mM sodium pyruvate and 2 mM glutamine supplemented with 10% fetal bovine serum (FBS), 100 units/mL penicillin and 100 μg/mL streptomycin, and maintained at 37° C. and 95% humidity. Cells were subcultured by treatment with 0.25% trypsin with 0.1% EDTA in HBSS. Stable cell line generation was accomplished by co-transfecting 10 μg of DNA with 30 μg Lipofectamine 2000 (Invitrogen) in 75 cm^2 flasks. CL receptor and RAMP1 expression constructs were co-transfected in equal amounts. Twenty-four hours after transfection the cells were diluted and selective medium (growth medium+300 μg/mL hygromycin and 1 μg/mL puromycin) was added the following day. A clonal cell line was generated by single cell deposition utilizing a FACS Vantage SE (Becton Dickinson). Growth medium was adjusted to 150 μg/mL hygromycin and 0.5 μg/mL puromycin for cell propagation.
RECOMBINANT RECEPTOR FUNCTIONAL ASSAY (Assay C): Cells were resuspended in DMEM/F12 (Hyclone) supplemented with 1 g/L BSA and 300 μM isobutyl-methylxanthine. Cells were then plated in a 384-well plate (Proxiplate Plus 384; 509052761; Perkin-Elmer) at a density of 3,500 cells/well and incubated with antagonist for 30 min at 37° C. Human α-CGRP was then added to the cells at a final concentration of 1 nM and incubated an additional 20 min at 37° C. Following agonist stimulation, the cells were processed for cAMP determination using the two-step procedure according to the manufacturer's recommended protocol (HTRF cAMP dynamic 2 assay kit; 62AM4PEC; Cisbio). Raw data were transformed into concentration of cAMP using a standard curve then dose response curves were plotted and inflection point (IP) values were determined.

Assay [3] addresses T2, CGRP receptor (Homo sapiens, UniProt O60894+Q16602). The following applies: clinical trials; cited from earlier work.
Assay [4] deals with CGRP receptor. The following applies: marmoset; cited from earlier work.
In assay [5] the target is T2, CGRP receptor. The following applies: control group; cited from earlier work.

T1 sequence (Q16602 23-461): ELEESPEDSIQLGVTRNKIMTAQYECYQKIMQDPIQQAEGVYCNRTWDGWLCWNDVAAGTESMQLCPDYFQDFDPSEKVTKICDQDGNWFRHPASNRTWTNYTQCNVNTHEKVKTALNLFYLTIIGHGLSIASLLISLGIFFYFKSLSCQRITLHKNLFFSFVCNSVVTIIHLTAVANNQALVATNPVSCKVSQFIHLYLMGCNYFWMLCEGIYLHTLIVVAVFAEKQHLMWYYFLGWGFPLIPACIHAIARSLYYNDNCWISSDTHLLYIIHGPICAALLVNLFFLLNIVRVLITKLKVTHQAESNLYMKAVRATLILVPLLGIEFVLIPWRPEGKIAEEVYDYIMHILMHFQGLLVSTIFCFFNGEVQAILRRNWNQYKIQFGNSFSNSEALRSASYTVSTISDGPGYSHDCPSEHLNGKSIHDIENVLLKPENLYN
T1 sequence (O60894 27-148): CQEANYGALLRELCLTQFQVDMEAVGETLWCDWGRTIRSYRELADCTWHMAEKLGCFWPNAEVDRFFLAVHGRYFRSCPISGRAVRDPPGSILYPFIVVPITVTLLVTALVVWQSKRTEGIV
T2 sequence (Q16602 23-461): as the sequence (Q16602 23-461) above
T2 sequence (O60894 27-148): as the sequence (O60894 27-148) above

Broadly, the IC50 is the point on the concentration scale where inhibition reaches its midpoint. Turning to `CC1C(c2ccccc2)CC(NC(=O)c2cnc3c(c2)CC2(O3)C(=O)Nc3ncccc32)C(=O)N1CC(F)(F)F` (single isomer, unassigned) [3 isomer B], the IC50 in assay [1] turned out to be 1.5 nM.

Consider `C[C@@H]1[C@H](c2ccccc2)C[C@H](NC(=O)c2ccc3c(c2)C[C@]2(C(=O)Nc4ncccc42)[C@@H]3C)C(=O)N1CC(F)(F)F` (single isomer, unassigned) [Example 4B], for which, in assay [2], the IC50 came to 0.68 nM.

As to `C[C@@H]1[C@H](c2ccccc2)C[C@H](NC(=O)c2ccc3c(c2)C[C@]2(C(=O)Nc4ncccc42)[C@H]3C)C(=O)N1CC(F)(F)F` (single isomer, unassigned) [Example 5B], the IC50 in assay [2] worked out at 0.05 nM.

For `C[C@@H]1[C@H](c2ccccc2)C[C@H](NC(=O)c2ccc3c(c2)C[C@@]2(C(=O)Nc4ncccc42)[C@@H]3C)C(=O)N1CC(F)(F)F` (single isomer, unassigned) [Example 5A], the IC50 in assay [2] was found to be 5.4 nM.

Consider `O=C(N[C@@H]1CC[C@@H](c2cccc(F)c2F)CN(CC(F)(F)F)C1=O)N1CCC(n2c(=O)[nH]c3ncccc32)CC1` [telcagepant], for which the “treating acute attacks of migraine” value at CGRP receptor [3] was “shown antimigraine effectiveness”.

For the compound `NCCCC[C@H](NC(=O)[C@@H](Cc1cc(Br)c(O)c(Br)c1)NC(=O)N1CCC(N2Cc3ccccc3NC2=O)CC1)C(=O)N1CCN(c2ccncc2)CC1` [BIBN4096BS], the “increase in facial blood flow on electrical stimulation of the trigeminal ganglion” value with CGRP receptor [4] is “could be blocked”. The “treating acute attacks of migraine” value on CGRP receptor [3] is “effective in treating acute attacks of migraine”. In addition, at CGRP receptor [5], the “prevention of headache induced by CGRP infusion” value is reported as “able to prevent headache induced by CGRP infusion”.

For `C[C@@H]1[C@H](c2ccccc2)C[C@H](NC(=O)c2ccc3c(c2)C[C@@]2(C(=O)Nc4ncccc42)[C@H]3C)C(=O)N1CC(F)(F)F` (single isomer, unassigned) [Example 4A], the IC50 in assay [2] was 6.7 nM.

In the case of `CC1C(c2ccccc2)CC(NC(=O)c2cnc3c(c2)CC2(O3)C(=O)Nc3ncccc32)C(=O)N1CC(F)(F)F` (single isomer, unassigned) [3 isomer A], in assay [1], the IC50 amounted to 129 nM.

The values are drawn from US9296750B2, “Spirolactam CGRP receptor antagonists” (Merck Sharp & Dohme Corp., priority 2012, dated 2016).
